From patent US20250188040A1, “PHARMACEUTICAL COMPOSITIONS COMPRISING WRN HELICASE INHIBITORS” (Vividion Therapeutics, Inc., priority 2022, published 2025) come the findings set out here.

In assay [1] the target is T1, WRN C727 (Homo sapiens, UniProt Q14191).
T1 construct: endogenous in cells; host or cells: OCI-AML2
Kind of assay: Target engagement, in vitro (lysate), OCI-AML2. The format is binding. The conditions noted are these: read-out: OCI-AML2 WRN C727 TE50 in vitro (lysate). The method, boiled down: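 Percent engagement of WRN C727 is expressed against DMSO-treated samples, measured by PRM mass spectrometry of streptavidin-enriched, probe-tagged tryptic peptides. Compound dose responses preceded probe labelling of solvent-exposed cysteines, in either living OCI-AML2 cells or their lysates.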

Assay [2] addresses T1, WRN C727. Kind of assay: Target engagement, in situ (cell), OCI-AML2. Format: cell-based. The following applies: OCI-AML2 cells, read-out: OCI-AML2 WRN C727 TE50 in situ (cell). Here is the method:
Cells or cell lysates were treated with a dose response of compound followed by probe treatment, which labels solvent exposed cysteines. Proteins were enzymatically digested with trypsin and probe-labelled peptides were enriched with streptavidin. Isolated peptides were then separated using reversed-phase liquid chromatography on a C18 column (Dionex Ultimated 3000 nano-LC, Thermo). Peptides were analyzed by parallel reaction monitoring mass spectrometry (Exploris 120, Thermo).
Target engagement (%) is calculated relative to DMSO treated control samples.

The subject of assay [3] is SW480 cells. As to the kind of experiment: Cell growth assay (CellTiter-Glo 2.0), SW480 MSS cell line. The conditions noted are these: Homo sapiens, SW480, 120 h, read-out: Cell Growth Inhibition GI50 SW480.
Assay [4] relates to HCT 116 cells. Kind of assay: Cell growth assay (CellTiter-Glo 2.0), HCT 116 MSI-H cell line. The conditions noted are these: Homo sapiens, HCT-116, 120 h, read-out: Cell Growth Inhibition GI50 HCT-116.
Experimental: The effects of compound on cellular viability were determined using the CellTiter-Glo® 2.0 Luminescent Cell Viability Assay (Promega, Madison, WI).
SW480 cells were seeded at 1,000 cells per well in Eagle's Minimum Essential Medium (EMEM) with 10% FBS. Both cell lines were seeded in a volume of 50 μL medium per well. […] The concentration range was adjusted as needed for compounds of different potencies. The cells treated with compounds were incubated for 5 days at 37° C. in 5% CO2. […] The plate was then read on a Clariostar plate reader (BMG Labtech, Cary, NC) in luminescence mode. The previously measured baseline cell viability was subtracted from the luminescence value of each well, and cell viability (% of DMSO) was plotted as a function of log compound concentration. The EC50 was then calculated for each compound using Dotmatics Software (San Diego, CA).
The target of assay [5] is hWRN(519-1227)_C-H3CV-GFP-10His (Homo sapiens, UniProt Q14191). Kind of assay: Helicase Assay for WRN Inhibition (ATP-dependent, fluorescence based).
hWRN(519-1227)_C-H3CV-GFP-10His, sequence (Q14191 519-1227): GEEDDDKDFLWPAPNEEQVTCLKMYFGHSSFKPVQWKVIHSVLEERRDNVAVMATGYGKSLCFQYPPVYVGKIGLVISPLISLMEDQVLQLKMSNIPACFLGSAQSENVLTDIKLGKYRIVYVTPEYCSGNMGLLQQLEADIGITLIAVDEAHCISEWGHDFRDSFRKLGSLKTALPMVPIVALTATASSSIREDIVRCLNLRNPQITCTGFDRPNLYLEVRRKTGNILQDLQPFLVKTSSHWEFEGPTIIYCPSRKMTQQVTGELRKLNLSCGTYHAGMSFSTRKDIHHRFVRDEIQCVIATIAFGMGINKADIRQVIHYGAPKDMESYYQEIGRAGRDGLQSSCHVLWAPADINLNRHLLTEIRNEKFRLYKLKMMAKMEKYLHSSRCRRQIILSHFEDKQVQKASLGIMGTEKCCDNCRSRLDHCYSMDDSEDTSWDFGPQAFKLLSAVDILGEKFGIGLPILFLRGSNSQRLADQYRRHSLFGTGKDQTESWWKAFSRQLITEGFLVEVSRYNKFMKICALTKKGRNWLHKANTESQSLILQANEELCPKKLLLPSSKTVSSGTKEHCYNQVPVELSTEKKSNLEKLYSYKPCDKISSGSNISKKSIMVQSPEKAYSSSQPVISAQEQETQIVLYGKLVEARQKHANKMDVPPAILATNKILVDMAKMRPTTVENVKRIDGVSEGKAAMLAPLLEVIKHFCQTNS
Experimental: Effects of compounds on WRN helicase activity were assessed with the Helicase Assay for WRN Inhibition. This is an ATP-dependent (inclusion of ATP is important and is required for this assay) fluorescence based assay using recombinant WRN and a fluorogenic DNA substrate.
WRN activity was normalized to signal from wells without WRN protein (background, 0% activity) and wells with protein treated only with DMSO (positive control, 10000 activity). For each compound the potency of inhibition (IC50) was determiined using Graphpad Prism.
[6] abbreviates: WRN Helicase IC50, 30 min preincubation with ATP, 30 min reaction.

pIC50: −log10 of the molar value. Read-outs that look alike come from different tables or passages of the source. Bounds are passed on as bounds.

T1 sequence (Q14191 whole entry): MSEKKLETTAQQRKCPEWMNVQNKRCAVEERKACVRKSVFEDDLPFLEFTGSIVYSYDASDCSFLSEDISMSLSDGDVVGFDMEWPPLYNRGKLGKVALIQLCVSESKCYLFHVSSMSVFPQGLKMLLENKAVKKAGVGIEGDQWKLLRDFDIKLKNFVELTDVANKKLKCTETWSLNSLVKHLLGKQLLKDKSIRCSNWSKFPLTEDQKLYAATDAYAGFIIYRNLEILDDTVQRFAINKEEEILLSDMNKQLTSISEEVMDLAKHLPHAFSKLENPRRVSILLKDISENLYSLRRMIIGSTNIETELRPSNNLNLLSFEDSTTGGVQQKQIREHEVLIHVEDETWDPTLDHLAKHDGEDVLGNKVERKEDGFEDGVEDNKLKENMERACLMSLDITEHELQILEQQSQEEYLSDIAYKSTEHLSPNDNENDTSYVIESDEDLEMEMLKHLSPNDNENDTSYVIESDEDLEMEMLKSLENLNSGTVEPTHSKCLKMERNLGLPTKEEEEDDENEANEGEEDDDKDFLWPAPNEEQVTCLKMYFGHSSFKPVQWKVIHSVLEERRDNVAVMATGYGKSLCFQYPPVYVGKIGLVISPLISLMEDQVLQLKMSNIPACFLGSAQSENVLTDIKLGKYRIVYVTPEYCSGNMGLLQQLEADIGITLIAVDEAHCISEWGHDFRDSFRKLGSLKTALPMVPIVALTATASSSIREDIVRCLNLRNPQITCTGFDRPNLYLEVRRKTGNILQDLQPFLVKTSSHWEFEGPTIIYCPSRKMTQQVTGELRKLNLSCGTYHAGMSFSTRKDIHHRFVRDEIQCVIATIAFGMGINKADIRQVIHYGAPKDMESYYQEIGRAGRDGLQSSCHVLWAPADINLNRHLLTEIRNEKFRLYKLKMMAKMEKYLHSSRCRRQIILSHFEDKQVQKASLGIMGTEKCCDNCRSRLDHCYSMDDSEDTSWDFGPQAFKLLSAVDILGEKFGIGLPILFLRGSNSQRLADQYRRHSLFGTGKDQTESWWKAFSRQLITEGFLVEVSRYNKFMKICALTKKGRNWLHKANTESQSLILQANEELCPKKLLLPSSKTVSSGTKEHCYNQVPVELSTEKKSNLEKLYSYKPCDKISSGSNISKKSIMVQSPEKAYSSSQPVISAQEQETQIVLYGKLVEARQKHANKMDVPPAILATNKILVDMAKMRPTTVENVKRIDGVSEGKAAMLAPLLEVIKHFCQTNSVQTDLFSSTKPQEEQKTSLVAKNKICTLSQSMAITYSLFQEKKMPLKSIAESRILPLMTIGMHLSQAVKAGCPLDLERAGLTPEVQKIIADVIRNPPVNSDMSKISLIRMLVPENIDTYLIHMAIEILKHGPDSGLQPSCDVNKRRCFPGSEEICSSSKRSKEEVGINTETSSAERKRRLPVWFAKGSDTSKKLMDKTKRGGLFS

As for `CCc1ncc(C(=O)NC/C=C/S(C)(=O)=O)c(Oc2ccccc2)n1` [Example 12, (E)-2-ethyl-N-(3-(methylsulfonyl)allyl)-4-phenoxypyrimidine-5-carboxamide], the values for the pIC50 in assay [1], in assay [2] and in assay [5] (setting [6]) were < 4.00, 4.30 and 4.85, respectively. Further, the GI50 is > 10000 nM in assay [3] and 8900 nM in assay [4].
With `CC(C)c1ncc(C(=O)NC/C=C/S(C)(=O)=O)c(Oc2ccccc2)n1` [Example 14, (E)-2-isopropyl-N-(3-(methylsulfonyl)allyl)-4-phenoxypyrimidine-5-carboxamide], the pIC50 in assay [1] is 4.70; in assay [2], 5.68; in assay [5] (setting [6]) it was 5.00. Also, the GI50 in assay [3] is > 10000 nM; in assay [4], 5400 nM.
With `CS(=O)(=O)/C=C/CNC(=O)c1cnc(C2CC2)nc1Oc1ccccc1` [Example 17, (E)-2-cyclopropyl-N-(3-(methylsulfonyl)allyl)-4-phenoxypyrimidine-5-carboxamide], the pIC50 in assay [1] is 4.10; in assay [2], 5.22; in assay [5] (setting [6]), 5.12. The 50% growth inhibitory concentration (GI50) in assay [3] was > 10000 nM; in assay [4] it was 6300 nM.
Take `C[C@@H](/C=C/S(C)(=O)=O)NC(=O)c1cnc(C2CC2)nc1Oc1ccccc1` [Example 18, (S,E)-2-cyclopropyl-N-(4-(methylsulfonyl)but-3-en-2-yl)-4-phenoxypyrimidine-5-carboxamide]: the results for the pIC50 in assay [1], in assay [2] and in assay [5] (setting [6]) were 5.16, 5.82 and 5.96, respectively. Further, the values for the GI50 in assay [3] and in assay [4] were > 10000 nM and 380 nM, respectively.
For the compound `C[C@@H](/C=C/S(C)(=O)=O)NC(=O)c1cnc(CC2CC2)nc1Oc1ccccc1` [Example 35, (S,E)-2-(cyclopropylmethyl)-N-(4-(methylsulfonyl)but-3-en-2-yl)-4-phenoxypyrimidine-5-carboxamide], the pIC50 in assay [1] was 5.30; in assay [2], 6.54; in assay [5] (setting [6]), 6.00. Moreover, the GI50 in assay [3] came out at 18100 nM; in assay [4], 171 nM.
On to `C[C@@H](/C=C/S(C)(=O)=O)NC(=O)c1cnc(C2CCC2)nc1Oc1ccccc1` [Example 44, (S,E)-2-cyclobutyl-N-(4-(methylsulfonyl)but-3-en-2-yl)-4-phenoxypyrimidine-5-carboxamide], for which the pIC50 is 5.93 in assay [1], 6.59 in assay [2] and 6.04 in assay [5] (setting [6]). The GI50 in assay [3] is > 10000 nM; in assay [4], 270 nM.
Consider `CC(C)(C)c1ncc(C(=O)NC/C=C/S(C)(=O)=O)c(Oc2ccccc2)n1` [Example 56, (E)-2-(tert-butyl)-N-(3-(methylsulfonyl)allyl)-4-phenoxypyrimidine-5-carboxamide], for which the pIC50 in assay [1] is 5.31; in assay [2], 6.37; in assay [5] (setting [6]), 6.07. For the same compound, the GI50 in assay [3] is 10600 nM; in assay [4] it was 378 nM.
In the case of `CC(C)(C)c1ncc(C(=O)N[C@H](/C=C/S(C)(=O)=O)C2CC2)c(Oc2ccccc2)n1` [Example 58, (S,E)-2-(tert-butyl)-N-(1-cyclopropyl-3-(methylsulfonyl)allyl)-4-phenoxypyrimidine-5-carboxamide], the pIC50 in assay [1] was 6.35; in assay [2], 7.80; in assay [5] (setting [6]), 7.24. Further, the GI50 in assay [3] amounted to 8730 nM; in assay [4] it was 23.5 nM.
`C[C@@H](/C=C/S(C)(=O)=O)NC(=O)c1cnc(C2CCCCC2)nc1Oc1ccccc1` [Example 77, (S,E)-2-cyclohexyl-N-(4-(methylsulfonyl)but-3-en-2-yl)-4-phenoxypyrimidine-5-carboxamide]: the pIC50 is 4.59 in assay [1], 5.94 in assay [2] and 5.82 in assay [5] (setting [6]). The GI50 in assay [3] was > 5000 nM; in assay [4], 430 nM.
With `CS(=O)(=O)/C=C/[C@@H](NC(=O)c1cnc(C(F)(F)C(F)(F)F)nc1Oc1ccccc1)C1CC1` [Example 84, (S,E)-N-(1-cyclopropyl-3-(methylsulfonyl)allyl)-2-(perfluoroethyl)-4-phenoxypyrimidine-5-carboxamide], the pIC50 in assay [1] is 6.70; in assay [2], 7.80; in assay [5] (setting [6]) it was 7.10. The values for the GI50 in assay [3] and in assay [4] were 8780 nM and 51.1 nM, respectively.
Consider `CS(=O)(=O)/C=C/[C@@H](NC(=O)c1cnc(C2(F)CC2)nc1Oc1ccccc1)C1CC1` [Example 100, (S,E)-N-(1-cyclopropyl-3-(methylsulfonyl)allyl)-2-(1-fluorocyclopropyl)-4-phenoxypyrimidine-5-carboxamide], for which the pIC50 in assay [1] is 6.07; in assay [2], 6.82; in assay [5] (setting [6]) it was 6.76. Also, the GI50 in assay [3] came to 24400 nM; in assay [4], 66 nM.
`CS(=O)(=O)/C=C/[C@@H](NC(=O)c1cnc(C2(C(F)(F)F)CC2)nc1Oc1ccccc1)C1CC1` [Example 102, (S,E)-N-(1-cyclopropyl-3-(methylsulfonyl)allyl)-4-phenoxy-2-(1-(trifluoromethyl)cyclopropyl)pyrimidine-5-carboxamide]: the values for the pIC50 in assay [1], in assay [2] and in assay [5] (setting [6]) were 6.28, 6.80 and 6.89, respectively. In addition, the GI50 in assay [3] is 4140 nM; in assay [4], 81.8 nM.
For `C[C@@H](/C=C/S(C)(=O)=O)NC(=O)c1cnc(C2CCCC2)nc1Oc1cc(F)cc(F)c1` [Example 116, (S,E)-2-cyclopentyl-4-(3,5-difluorophenoxy)-N-(4-(methylsulfonyl)but-3-en-2-yl)pyrimidine-5-carboxamide], in that order: 4.65, 5.82, 5.66, > 10000 nM and 2500 nM.
As to `C[C@@H](/C=C/S(C)(=O)=O)NC(=O)c1cnc(C2CC2)nc1OC1CCCC1` [Example 144, (S,E)-4-(cyclopentyloxy)-2-cyclopropyl-N-(4-(methylsulfonyl)but-3-en-2-yl)pyrimidine-5-carboxamide], the figures for the pIC50 in assay [1], in assay [2] and in assay [5] (setting [6]) were 4.70, 6.10 and 5.72, respectively. For the same compound, the figures for the GI50 in assay [3] and in assay [4] were > 16000 nM and 693 nM, respectively.
Turning to `C[C@@H](/C=C/S(C)(=O)=O)NC(=O)c1cnc(C(C)(C)C)nc1OC1CCCC1` [Example 153, (S,E)-2-(tert-butyl)-4-(cyclopentyloxy)-N-(4-(methylsulfonyl)but-3-en-2-yl)pyrimidine-5-carboxamide], the pIC50 in assay [1] was 5.73; in assay [2] it was 6.80; in assay [5] (setting [6]) it was 6.30. Also, the figures for the GI50 in assay [3] and in assay [4] were > 10000 nM and 165 nM, respectively.
For `C[C@@H](/C=C/S(C)(=O)=O)NC(=O)c1cnc(C(C)(C)C)nc1OC1CCCCC1` [Example 154, (S,E)-2-(tert-butyl)-4-(cyclohexyloxy)-N-(4-(methylsulfonyl)but-3-en-2-yl)pyrimidine-5-carboxamide], the pIC50 was 5.88 in assay [1], 6.85 in assay [2] and 6.48 in assay [5] (setting [6]). Moreover, the GI50 came out at 8970 nM in assay [3] and 222 nM in assay [4].
For `C[C@@H](/C=C/S(C)(=O)=O)NC(=O)c1cc(C#N)c(C2CCCC2)nc1Oc1ccccc1` [Example 163, (S,E)-5-cyano-6-cyclopentyl-N-(4-(methylsulfonyl)but-3-en-2-yl)-2-phenoxynicotinamide], in that order: 5.75, 6.25, 6.13, 3900 nM and 400 nM.
The corresponding values for `C[C@@H](/C=C/S(C)(=O)=O)NC(=O)c1cnc(NC2CCCC2)nc1Oc1ccccc1` [Example 164, (S,E)-2-(cyclopentylamino)-N-(4-(methylsulfonyl)but-3-en-2-yl)-4-phenoxypyrimidine-5-carboxamide] are < 4.00, 4.67, 4.92, > 10000 nM and 7100 nM.
Take `CC(C)(C)c1ncc(C(=O)N2CC(=CS(C)(=O)=O)C2)c(Oc2ccccc2)n1` [Example 189, (2-(tert-butyl)-4-phenoxypyrimidin-5-yl)(3-((methylsulfonyl)methylene)azetidin-1-yl)methanone]: the pIC50 in assay [1] is 6.19; in assay [2], 7.00; in assay [5], 6.62. The results for the GI50 in assay [3] and in assay [4] were > 13800 nM and 102 nM, respectively.
Turning to `CS(=O)(=O)/C=C/[C@@H](NC(=O)c1cnc(C(F)(F)C2CC2)nc1Oc1ccccc1)C1CC1` [Example 224, (S,E)-N-(1-cyclopropyl-3-(methylsulfonyl)allyl)-2-(cyclopropyldifluoromethyl)-4-phenoxypyrimidine-5-carboxamide], the pIC50 in assay [1] was 7.03; in assay [2], 8.06; in assay [5] (setting [6]) it was 7.32. Further, the GI50 stood at 13600 nM in assay [3] and 17 nM in assay [4].
